Read-outs that look alike come from different tables or passages of the source. Each block holds one compound with its values, some of them ahead of it.
What was measured:
IL-6 in huPBMCs = assay: IL-6 inhibition in LPS-stimulated human peripheral blood mononuclear cells (HTRF); assay type: cell-based; conditions: for percent in parentheses beside EC50 >10 μM: LPS-stimulated huPBMCs, given only where EC50 >10 μM (top concentration 10 μM); for EC50: LPS-stimulated (50 ng/mL) huPBMCs, 22 hours, dose-response starting from 10 μM
Experimental: After 22 hour incubation, a mixture of anti-IL6 XL665 and anti-IL-6 Cryptate diluted in reconstitution buffer (Catalog #62IL6PEC, Cisbio Inc., Bedford, Mass.) was added to each well. […] All samples were processed in duplicate. […] EC50 was determined using software generated by Dotmatics Limited (Windhill Bishops Stortford Herts, UK) using the Levenberg-Marquardt 4 parameter fitting procedure with finite different gradients.

[1] = system: SW480 colon carcinoma cells; assay: Cell viability assay (CellTiter-Glo) in SW480 cells; assay type: cell-based, human; conditions: for EC50: four days incubation
[2] = system: Wnt activity (Sp5-Luc reporter, TCF/LEF binding sites) in SW480 colon carcinoma cells; assay: Screening assay for Wnt activity: Sp5-Luc reporter gene assay in SW480 cells; assay type: cell-based, human; conditions: 36 to 48 hours
Experimental: The screening assay for Wnt activity is described as follows.
Following incubation, 15 μl of BriteLite Plus luminescence reagent (Perkin Elmer) was added to each well of the 384-well assay plates. The plates were placed on an orbital shaker for 2 min and then luminescence was quantified using the Envision (Perkin Elmer) plate reader.

[3] = system: Tau phosphorylation at Ser396 (pSer396) in SH-SY5Y cells; assay: Tau phosphorylation (pSer396) assay in SH-SY5Y cells, ELISA/western blot; assay type: cell-based, human
Experimental: Two days before treatment, cells were seeded onto 96 well plates at 5×10^4 cells/well.
Wells were visually checked for cell death or change in morphology and supernatants were tested for cytotoxicity by measurement of lactate dehydrogenase release (LDH, CytoToxOne kit, Promega) if necessary.
Cells were lysed with RIPA buffer complemented with phosphatase and protease inhibitors then lysates were spun down at 12,000 g for 10 min to remove any cellular debris. Lysates are then either directly tested for pSer396 by ELISA (Life Technology, Kit KHB7031) or loaded on NuPage Bis-Tris gels for western blot analysis. Colorimetric detection of ELISA signal is performed by Cytation3 plate reader (Biotek) and the chemiluminescence signal for HRP-linked antibodies used in western blotting is detected using a Carestream Image Station. The same pSer396 antibody is used for detection of pTau in both assays.

KC-GRO, BV-2 cells = assay: Secreted cytokines in Lipopolysaccharide-stimulated BV-2 mouse microglial cells: KC-GRO; assay type: cell-based; conditions: LPS 250 ng/mL for 5 h
Experimental: (§1) Representative compounds were screened using the cell-based assay procedure for secreted cytokines in a Lipopolysaccharide-stimulated mouse glial cell line described below.
(§2) BV-2 cells (mouse microglial cells) were cultured in 1:1 DMEM medium supplemented with 10% FBS, and 1% penicillin/streptomycin.
(§3) BV-2 cells are plated at 35,000 cells/well in a volume of 100 ul for at least 4 hours before compounds are added. DMSO-resuspended compounds were first dispensed in a 96 well plate and serial diluted from 10 μM to 4.6 nM final concentration in medium. Compounds were added to cells overnight. Two hundred fifty ng per milliliter of lipopolysaccharide (Escherichia coli 055:B5, SIGMA) was added for 5 h. Supernatant is removed and saved for further cytokine detection. The original plates with seeded cells were tested for cytotoxicity by measure of adenosine triphosphate (ATP) release by adding CellTiter-Glo® diluted 1:4 in distilled water (G7573, Promega) and transferring lysed cells to a completely black 96-well plate to be read with the Cytation3. Supernatant was then diluted 1:2 with a diluent from V-PLEX cytokine Kit and directly tested for the secreted cytokines TNFα, IL-6 and KC-GRO using electrochemiluminescence (Meso Scale Discovery). The standard curve for each cytokine was used to convert the electrochemiluminescent signal into pg of protein per mL.

IL-6, BV-2 cells = assay: Secreted cytokines in Lipopolysaccharide-stimulated BV-2 mouse microglial cells: IL-6; assay type: cell-based; conditions: LPS 250 ng/mL for 5 h
Experimental: as §1, §2, §3

[4] = system: α-smooth muscle actin (αSMA) in LL29 cells; assay: Fibrosis assay: TGF-β1 treated primary human fibroblasts from IPF patients (LL29), αSMA staining; assay type: cell-based; conditions: for EC50: LL29 cells treated with TGF-β1 (20 ng/mL), 4 days; for percent in parentheses beside EC50 >10 μM: LL29 cells treated with TGF-β1, given only where EC50 >10 μM (top concentration 10 μM)
TNFα, BV-2 cells = assay: Secreted cytokines in Lipopolysaccharide-stimulated BV-2 mouse microglial cells: TNFα; assay type: cell-based; conditions: LPS 250 ng/mL for 5 h
Experimental: as §1, §2, §3

DYRK1A kinase = DYRK1A kinase (Homo sapiens (Human), UniProt Q13627); assay: DYRK1A kinase assay (Ser/Thr 18 peptide Z-lyte FRET); assay type: biochemical
GSK3β kinase = GSK3β kinase (Homo sapiens (Human), UniProt P49841); assay: GSK3β kinase assay (Ser/Thr 09 peptide Z-lyte FRET); assay type: biochemical
[5] = system: secreted β-amyloid 40 (Aβ40) peptide, SH-SY5Y-APP cells; assay: Secreted β-amyloid 40 peptide assay in APP overexpressing SH-SY5Y-APP cells; assay type: cell-based; conditions: Homo sapiens, overnight (16-18 hours)
Experimental: Representative compounds were screened using the cell-based assay procedure for secreted β-amyloid 40 (Aβ340) peptide in an APP overexpressing cell line described below.
SH-SY5Y cells were infected with lentivirus to overexpress amyloid (A4) beta precursor protein (APP), hereafter referred to as the SH-SY5Y-APP cells. […] Culture medium was changed 18 h post-transfection before a first batch of viral supernatant was then harvested at 42 h post-transfection. Culture medium was replenished once more before a second batch of viral supernatant was harvested 66 h post-transfection.
SH-SY5Y cells were seeded onto 6-well plates at 5.0×10^5 cells/well and incubated overnight at 37° C. Cells were then infected with viral supernatant at concentrations ranging from 10%→100% viral supernatant (diluted in Opti-MEM as appropriate), with 10 μg/mL Polybrene added for permeability (H9268, Sigma). […]
The cell assay procedure start 18 h prior to treatment, as SH-SY5Y-APP cells were seeded onto 96-well plates at 2.0×10^4 cells/well. […] The original plates with seeded cells were tested for cytotoxicity by measure of adenosine triphosphate (ATP) release by adding CellTiter-Glo® diluted 1:4 in distilled water (G7573, Promega) and transferring lysed cells to a completely black 96-well plate to be read with the Cytation3. […]

[6] = overnight (16-18 h) exposure, pSer396 Tau ELISA, read-out: pSer396 Tau EC50
[7] = DYRK1A kinase Z-lyte assay, 30 μM ATP, one hour at room temperature, text calls values IC50
[8] = GSK3β kinase Z-lyte assay, 46 μM ATP, one hour at room temperature, text calls values IC50
[9] = Homo sapiens, Fibroblast, 96 h, dose-response 10 μM to 0.94 nM
[10] = Homo sapiens, overnight (16-18 h) exposure, pSer396 Tau ELISA, read-out: pSer396 Tau EC50

GSK3β kinase, sequence (P49841 whole entry): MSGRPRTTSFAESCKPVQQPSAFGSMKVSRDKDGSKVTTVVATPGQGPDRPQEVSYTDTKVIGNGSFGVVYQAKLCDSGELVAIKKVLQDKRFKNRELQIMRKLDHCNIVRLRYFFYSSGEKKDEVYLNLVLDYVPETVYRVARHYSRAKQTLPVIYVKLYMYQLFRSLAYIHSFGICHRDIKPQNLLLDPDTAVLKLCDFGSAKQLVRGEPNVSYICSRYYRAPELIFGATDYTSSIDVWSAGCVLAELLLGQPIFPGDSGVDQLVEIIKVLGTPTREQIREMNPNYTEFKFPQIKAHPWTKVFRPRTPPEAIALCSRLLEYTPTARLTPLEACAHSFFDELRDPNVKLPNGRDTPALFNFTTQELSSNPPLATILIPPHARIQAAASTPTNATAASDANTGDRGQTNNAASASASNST

Compound: Cn1cc(-c2ccc3cnc(NC(=O)C4C(C)(C)C4(C)C)cc3c2)nn1 [Compound 277, 2,2,3,3-Tetramethyl-N-(6-(1-methyl-1H-1,2,3-triazol-4-yl)isoquinolin-3-yl) cyclopropane-1-carboxamide]
- percent in parentheses beside EC50 >10 μM (IL-6 in huPBMCs): 4.0%

- EC50 [1]: > 10 µM
- EC50 (IL-6 in huPBMCs): > 10 µM
- percent in parentheses beside EC50 >10 μM (IL-6 in huPBMCs): 10.4%
- EC50 [2]: 2.54 µM
- EC50 [3, 6]: 0.319 µM
Compound: Cc1nnc(-c2ccc3cnc(NC(=O)CN4CCCOCC4)cc3c2)s1 [Compound 1049, N-(6-(5-Methyl-1,3,4-thiadiazol-2-yl)isoquinolin-3-yl)-2-(1,4-oxazepan-4-yl) acetamide]
- percent inhibition at 10 μM ([1]; at 10 μM, given for EC50 of >10 μM): 31.3%

Compound: Cc1nnc(-c2ccc3cnc(NC(=O)CN4C5CCC4CC5)cc3c2)s1 [Compound 959, 2-(7-Azabicyclo[2.2.1]heptan-7-yl)-N-(6-(5-methyl-1,3,4-thiadiazol-2-yl)isoquinolin-3-yl)acetamide]
- percent in parentheses beside EC50 >10 μM (IL-6 in huPBMCs): 6.1%

Compound: 1-Isobutyl-N-(6-(5-methyl-1,3,4-oxadiazol-2-yl)isoquinolin-3-yl)piperidine-4-carboxamide [Compound 1020]
- EC50 [1]: 1.03 µM
- EC50 (KC-GRO, BV-2 cells): 0.708 µM
- EC50 (IL-6, BV-2 cells): 0.087 µM
- EC50 (IL-6 in huPBMCs): 1.18 µM
- EC50 [2]: 1.14 µM
- EC50 ([4]; dose-response 10 μM to […]): > 10 µM
- percent in parentheses beside EC50 >10 μM [4]: 30.6%
- EC50 (TNFα, BV-2 cells): 0.597 µM
- EC50 (DYRK1A kinase; [7]): 0.0104 µM
- EC50 [3, 6]: 0.049 µM
- EC50 (GSK3β kinase; [8]): 0.013 µM

Compound: CO[C@H]1CC[C@@H](C(=O)Nc2cc3cc(-c4nnc(C)s4)ccc3cn2)CC1 [Compound 1001, cis-4-Methoxy-N-(6-(5-methyl-1,3,4-thiadiazol-2-yl)isoquinolin-3-yl) cyclohexane-1-carboxamide]
- inhibition at 10 µM (IL-6 in huPBMCs; Homo sapiens, PBMC, read-out: percent in parentheses beside EC50 >10 μM): 49.7%

Compound: Cc1nnc(-c2ccc3cnc(NC(=O)CN4C5CCC4COC5)cc3c2)s1 [Compound 962, 2-(3-Oxa-8-azabicyclo[3.2.1]octan-8-yl)-N-(6-(5-methyl-1,3,4-thiadiazol-2-yl)isoquinolin-3-yl)acetamide]
- percent in parentheses beside EC50 >10 μM (IL-6 in huPBMCs): 9.6%

Compound: CC(C)CN1CCC[C@@H](C(=O)Nc2cc3cc(-c4cnn5c4CN(CCF)CC5)ccc3cn2)C1 [Compound 1002, (R)—N-(6-(5-(2-Fluoroethyl)-4,5,6,7-tetrahydropyrazolo[1,5-a]pyrazin-3-yl)isoquinolin-3-yl)-1-isobutylpiperidine-3-carboxamide]
- percent in parentheses beside EC50 >10 μM [4]: 27.5%

- EC50 ([1]; Homo sapiens, 96 h): 0.751 µM
- EC50 (IL-6 in huPBMCs; Homo sapiens, PBMC): 0.396 µM
- EC50 ([2]; Homo sapiens): 0.578 µM
- EC50 [3, 10]: 0.163 µM
Compound: C[C@H](F)CN1CCC(C(=O)Nc2cc3cc(-c4cnn(C)c4)ccc3cn2)CC1 [Compound 311, (S)-1-(2-Fluoropropyl)-N-(6-(1-methyl-1H-pyrazol-4-yl)isoquinolin-3-yl) piperidine-4-carboxamide]
- EC50 [4, 9]: 0.076 µM

Compound: Cn1cc(-c2ccc3cnc(NC(=O)C45CCN(CC4)CC5)cc3c2)cn1 [Compound 1071, N-(6-(1-Methyl-1H-pyrazol-4-yl)isoquinolin-3-yl)quinuclidine-4-carboxamide]
- percent in parentheses beside EC50 >10 μM (IL-6 in huPBMCs): 8.8%

Compound: Cn1cc(-c2ccc3cnc(NC(=O)CN4C5CCC4COC5)cc3c2)cn1 [Compound 347, 2-(3-Oxa-8-azabicyclo[3.2.1]octan-8-yl)-N-(6-(1-methyl-1H-pyrazol-4-yl)isoquinolin-3-yl)acetamide]
- percent in parentheses beside EC50 >10 μM (IL-6 in huPBMCs): 4.5%

Compound: Cn1cc(-c2ccc3cnc(NC(=O)CN4C5CCC4CC5)cc3c2)nn1 [Compound 513, 2-(7-Azabicyclo[2.2.1]heptan-7-yl)-N-(6-(1-methyl-1H-1,2,3-triazol-4-yl)isoquinolin-3-yl)acetamide]
- percent in parentheses beside EC50 >10 μM (IL-6 in huPBMCs): 14.5%

Compound: CCN1/C(=C/C(C)=O)Sc2ccc(O)cc21 [Indy, reference compound]
- EC50 ([3]; control compounds, read-out: EC50 in the Tau assay): > 10 µM

Compound: Cn1cncc1-c1ccc2cnc(NC(=O)C3C(C)(C)C3(C)C)cc2c1 [Compound 269, 2,2,3,3-Tetramethyl-N-[6-(3-methylimidazol-4-yl)-3-isoquinolyl]cyclopropanecarboxamide]
- IC50 [5]: > 10 µM

- EC50 ([1]; Homo sapiens, 96 h): 8.39 µM
- EC50 (IL-6, BV-2 cells; Mus musculus): 0.014 µM
- EC50 (IL-6 in huPBMCs; Homo sapiens, PBMC): 6.47 µM
- EC50 ([2]; Homo sapiens): 0.738 µM
- EC50 (DYRK1A kinase): 0.0076 µM
- EC50 [3, 10]: 0.091 µM
- EC50 (GSK3β kinase): 0.016 µM
Compound: Cn1cc(-c2ccc3cnc(NC(=O)C4CCN(CC(C)(C)O)CC4)cc3c2)nn1 [Compound 1070, 1-(2-Hydroxy-2-methylpropyl)-N-(6-(1-methyl-1H-1,2,3-triazol-4-yl)isoquinolin-3-yl)piperidine-4-carboxamide]

- EC50 ([1]; Homo sapiens, 96 h): 0.922 µM
- EC50 (IL-6 in huPBMCs; Homo sapiens, PBMC): 1.26 µM
- EC50 ([2]; Homo sapiens): 1.13 µM
- EC50 (DYRK1A kinase; [7]): 0.0024 µM
- EC50 [3, 10]: 0.435 µM
- EC50 (GSK3β kinase; [8]): 0.083 µM
Compound: CN1CCN(C[C@H]2CC[C@H](C(=O)Nc3cc4cc(-c5cnco5)ccc4cn3)CC2)CC1 [Compound 1007, trans-4-((4-methylpiperazin-1-yl)methyl)-N-(6-(oxazol-5-yl)isoquinolin-3-yl)cyclohexane-1-carboxamide]
- EC50 [4, 9]: 0.942 µM
